Reference: the kinase profiling compilation of Christmann-Franck et al. (2016)

Legend:
Assay in all cases: radiometric filter-binding kinase assay, Kinase HotSpot
Settings in all cases: compound 0.5 µM; ATP 10 µM
FES (human) = FES (human) (UniProt P07332)
FGFR3 (human) = FGFR3 (human) (UniProt P22607)
ITK (human) = ITK (human) (UniProt Q08881)
KDR (human) = KDR (human) (UniProt P35968)
HIPK2 (human) = HIPK2 (human) (UniProt Q9H2X6)
CDC42BPB (human) = CDC42BPB (human) (UniProt Q9Y5S2)
EPHA5 (human) = EPHA5 (human) (UniProt P54756)
CLK4 (human) = CLK4 (human) (UniProt Q9HAZ1)
DYRK2 (human) = DYRK2 (human) (UniProt Q92630)
WEE1 (human) = WEE1 (human) (UniProt P30291)
MAP3K9 (human) = MAP3K9 (human) (UniProt P80192)
RPS6KA6 KD1 KD2 (human) = RPS6KA6 KD1 KD2 (human) (UniProt Q9UK32)
TXK (human) = TXK (human) (UniProt P42681)
ERBB2 (human) = ERBB2 (human) (UniProt P04626)
PLK1 (human) = PLK1 (human) (UniProt P53350)
PRKACA (human) = PRKACA (human) (UniProt P17612)
BTK (human) = BTK (human) (UniProt Q06187)
MAP2K1 (human) = MAP2K1 (human) (UniProt Q02750)
PTK2B (human) = PTK2B (human) (UniProt Q14289)
PRKCA (human) = PRKCA (human) (UniProt P17252)
RPS6KB2 (human) = RPS6KB2 (human) (UniProt Q9UBS0)
SRPK3 (human) = SRPK3 (human) (UniProt Q9UPE1)
GSG2 (human) = GSG2 (human) (UniProt Q8TF76)
FGR (human) = FGR (human) (UniProt P09769)
WNK2 (human) = WNK2 (human) (UniProt Q9Y3S1)
AURKA (human) = AURKA (human) (UniProt O14965)
DAPK1 (human) = DAPK1 (human) (UniProt P53355)
HCK (human) = HCK (human) (UniProt P08631)
PLK3 (human) = PLK3 (human) (UniProt Q9H4B4)
CSNK1D (human) = CSNK1D (human) (UniProt P48730)
PRKCB1 (human) = PRKCB1 (human) (UniProt P05771)
NEK6 (human) = NEK6 (human) (UniProt Q9HC98)
MST4 (human) = MST4 (human) (UniProt Q9P289)
STK4 (human) = STK4 (human) (UniProt Q13043)
CDK9 CCNK (human) = CDK9 CCNK (human) (UniProt O75909+P50750)
DSTYK (human) = DSTYK (human) (UniProt Q6XUX3)
SRC (human) = SRC (human) (UniProt P12931)
BMX (human) = BMX (human) (UniProt P51813)
MARK3 (human) = MARK3 (human) (UniProt P27448)
DCLK2 (human) = DCLK2 (human) (UniProt Q8N568)
STK24 (human) = STK24 (human) (UniProt Q9Y6E0)
YES1 (human) = YES1 (human) (UniProt P07947)
YES1 (human), sequence (P07947 whole entry, looked up): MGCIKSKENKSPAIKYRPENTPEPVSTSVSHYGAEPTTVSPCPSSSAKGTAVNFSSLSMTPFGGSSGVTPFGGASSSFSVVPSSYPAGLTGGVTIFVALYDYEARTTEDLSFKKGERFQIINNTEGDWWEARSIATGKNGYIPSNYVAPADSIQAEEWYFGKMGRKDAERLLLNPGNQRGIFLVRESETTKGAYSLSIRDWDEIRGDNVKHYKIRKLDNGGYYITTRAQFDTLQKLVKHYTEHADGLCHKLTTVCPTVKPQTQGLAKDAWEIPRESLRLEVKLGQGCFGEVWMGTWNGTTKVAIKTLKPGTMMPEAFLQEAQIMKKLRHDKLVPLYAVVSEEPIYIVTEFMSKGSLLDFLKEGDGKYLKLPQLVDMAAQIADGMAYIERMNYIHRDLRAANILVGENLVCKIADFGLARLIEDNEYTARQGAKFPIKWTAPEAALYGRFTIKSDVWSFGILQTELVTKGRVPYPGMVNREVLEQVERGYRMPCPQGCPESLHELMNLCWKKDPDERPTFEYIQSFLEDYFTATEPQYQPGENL

NEK6 (human), sequence (Q9HC98 whole entry, looked up): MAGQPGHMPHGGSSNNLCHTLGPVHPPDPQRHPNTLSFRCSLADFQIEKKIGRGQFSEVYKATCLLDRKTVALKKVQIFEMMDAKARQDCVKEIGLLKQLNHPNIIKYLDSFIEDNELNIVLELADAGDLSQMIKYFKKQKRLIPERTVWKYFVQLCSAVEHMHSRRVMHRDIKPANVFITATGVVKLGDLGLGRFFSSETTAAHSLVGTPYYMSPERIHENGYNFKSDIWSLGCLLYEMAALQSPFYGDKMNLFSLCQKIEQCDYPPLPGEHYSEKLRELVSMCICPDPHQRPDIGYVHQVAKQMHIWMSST
MAP2K1 (human), sequence (Q02750 whole entry, looked up): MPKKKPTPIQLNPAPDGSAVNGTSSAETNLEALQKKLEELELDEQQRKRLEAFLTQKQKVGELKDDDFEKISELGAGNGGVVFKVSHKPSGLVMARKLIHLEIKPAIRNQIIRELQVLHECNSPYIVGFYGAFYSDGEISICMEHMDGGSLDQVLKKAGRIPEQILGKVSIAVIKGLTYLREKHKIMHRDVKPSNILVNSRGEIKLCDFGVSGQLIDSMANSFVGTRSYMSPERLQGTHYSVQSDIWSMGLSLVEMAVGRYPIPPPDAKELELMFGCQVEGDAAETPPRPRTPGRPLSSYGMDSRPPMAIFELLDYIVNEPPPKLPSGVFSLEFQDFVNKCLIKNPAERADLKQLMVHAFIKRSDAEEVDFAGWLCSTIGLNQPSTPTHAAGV
SRC (human), sequence (P12931 whole entry, looked up): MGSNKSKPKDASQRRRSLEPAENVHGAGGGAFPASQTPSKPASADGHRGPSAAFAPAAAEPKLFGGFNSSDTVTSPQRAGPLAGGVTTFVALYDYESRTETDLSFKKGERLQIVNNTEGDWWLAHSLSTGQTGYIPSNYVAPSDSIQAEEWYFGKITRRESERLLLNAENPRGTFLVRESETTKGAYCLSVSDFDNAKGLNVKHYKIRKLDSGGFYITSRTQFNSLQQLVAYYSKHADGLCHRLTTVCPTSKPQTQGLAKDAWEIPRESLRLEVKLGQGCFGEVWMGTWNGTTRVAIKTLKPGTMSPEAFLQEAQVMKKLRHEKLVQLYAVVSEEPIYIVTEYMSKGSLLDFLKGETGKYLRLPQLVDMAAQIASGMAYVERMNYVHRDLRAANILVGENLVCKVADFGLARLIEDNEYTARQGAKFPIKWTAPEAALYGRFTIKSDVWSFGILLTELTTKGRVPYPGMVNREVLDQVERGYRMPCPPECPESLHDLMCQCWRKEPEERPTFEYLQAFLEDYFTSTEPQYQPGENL
GSG2 (human), sequence (Q8TF76 whole entry, looked up): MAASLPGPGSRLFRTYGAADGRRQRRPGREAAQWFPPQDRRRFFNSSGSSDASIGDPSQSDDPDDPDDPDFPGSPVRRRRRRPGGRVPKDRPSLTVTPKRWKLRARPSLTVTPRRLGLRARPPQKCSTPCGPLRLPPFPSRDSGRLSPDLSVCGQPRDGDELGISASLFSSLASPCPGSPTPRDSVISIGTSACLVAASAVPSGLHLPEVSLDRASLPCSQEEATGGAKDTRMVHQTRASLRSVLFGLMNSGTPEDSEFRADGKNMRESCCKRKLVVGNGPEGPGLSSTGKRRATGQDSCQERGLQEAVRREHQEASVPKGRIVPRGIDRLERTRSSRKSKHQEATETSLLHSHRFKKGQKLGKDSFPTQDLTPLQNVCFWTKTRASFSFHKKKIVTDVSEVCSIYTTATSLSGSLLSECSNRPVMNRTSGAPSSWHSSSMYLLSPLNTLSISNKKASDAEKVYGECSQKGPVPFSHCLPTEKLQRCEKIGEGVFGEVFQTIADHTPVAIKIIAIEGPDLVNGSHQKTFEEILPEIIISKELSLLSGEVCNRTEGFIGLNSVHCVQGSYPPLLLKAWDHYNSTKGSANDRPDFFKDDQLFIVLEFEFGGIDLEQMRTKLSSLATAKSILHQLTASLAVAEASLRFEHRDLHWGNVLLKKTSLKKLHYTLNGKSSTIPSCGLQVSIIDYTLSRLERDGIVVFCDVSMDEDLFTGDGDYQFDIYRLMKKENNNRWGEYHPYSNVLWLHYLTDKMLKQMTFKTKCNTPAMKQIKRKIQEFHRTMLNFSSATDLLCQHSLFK
PRKCB1 (human), sequence (P05771 whole entry, looked up): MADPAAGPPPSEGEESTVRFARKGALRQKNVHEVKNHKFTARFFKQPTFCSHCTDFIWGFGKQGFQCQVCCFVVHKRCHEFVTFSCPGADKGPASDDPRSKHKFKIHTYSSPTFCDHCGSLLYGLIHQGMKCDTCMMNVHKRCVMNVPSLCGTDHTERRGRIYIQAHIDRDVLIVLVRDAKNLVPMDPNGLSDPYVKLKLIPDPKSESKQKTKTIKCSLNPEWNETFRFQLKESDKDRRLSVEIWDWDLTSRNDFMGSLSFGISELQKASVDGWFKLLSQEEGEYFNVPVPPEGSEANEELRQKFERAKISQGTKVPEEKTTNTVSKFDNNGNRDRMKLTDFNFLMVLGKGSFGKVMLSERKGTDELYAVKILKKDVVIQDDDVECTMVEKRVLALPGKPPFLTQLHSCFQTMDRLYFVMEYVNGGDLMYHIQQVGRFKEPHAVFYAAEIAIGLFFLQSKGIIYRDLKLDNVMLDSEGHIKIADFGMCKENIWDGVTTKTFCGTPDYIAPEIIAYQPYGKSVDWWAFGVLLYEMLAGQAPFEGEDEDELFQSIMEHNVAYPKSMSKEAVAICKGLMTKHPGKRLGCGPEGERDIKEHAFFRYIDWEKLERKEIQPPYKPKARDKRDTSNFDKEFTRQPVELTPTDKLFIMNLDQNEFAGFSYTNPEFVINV
ITK (human), sequence (Q08881 whole entry, looked up): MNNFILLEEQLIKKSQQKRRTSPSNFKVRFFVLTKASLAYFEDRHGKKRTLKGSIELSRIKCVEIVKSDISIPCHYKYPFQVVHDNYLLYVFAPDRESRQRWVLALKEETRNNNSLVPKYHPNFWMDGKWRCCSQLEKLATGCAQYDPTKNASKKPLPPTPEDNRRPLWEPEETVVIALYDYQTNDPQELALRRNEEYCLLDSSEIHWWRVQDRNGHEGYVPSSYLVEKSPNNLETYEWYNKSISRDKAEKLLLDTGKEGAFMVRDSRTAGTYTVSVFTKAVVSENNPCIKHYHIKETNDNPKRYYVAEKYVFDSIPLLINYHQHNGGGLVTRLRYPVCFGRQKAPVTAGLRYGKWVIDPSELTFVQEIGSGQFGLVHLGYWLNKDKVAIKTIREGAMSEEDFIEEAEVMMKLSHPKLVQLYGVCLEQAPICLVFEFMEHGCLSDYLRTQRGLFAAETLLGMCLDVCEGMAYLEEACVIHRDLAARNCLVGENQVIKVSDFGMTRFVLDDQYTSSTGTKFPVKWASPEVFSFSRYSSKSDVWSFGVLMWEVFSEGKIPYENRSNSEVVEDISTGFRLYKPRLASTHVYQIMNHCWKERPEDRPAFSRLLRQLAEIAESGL
DYRK2 (human), sequence (Q92630 whole entry, looked up): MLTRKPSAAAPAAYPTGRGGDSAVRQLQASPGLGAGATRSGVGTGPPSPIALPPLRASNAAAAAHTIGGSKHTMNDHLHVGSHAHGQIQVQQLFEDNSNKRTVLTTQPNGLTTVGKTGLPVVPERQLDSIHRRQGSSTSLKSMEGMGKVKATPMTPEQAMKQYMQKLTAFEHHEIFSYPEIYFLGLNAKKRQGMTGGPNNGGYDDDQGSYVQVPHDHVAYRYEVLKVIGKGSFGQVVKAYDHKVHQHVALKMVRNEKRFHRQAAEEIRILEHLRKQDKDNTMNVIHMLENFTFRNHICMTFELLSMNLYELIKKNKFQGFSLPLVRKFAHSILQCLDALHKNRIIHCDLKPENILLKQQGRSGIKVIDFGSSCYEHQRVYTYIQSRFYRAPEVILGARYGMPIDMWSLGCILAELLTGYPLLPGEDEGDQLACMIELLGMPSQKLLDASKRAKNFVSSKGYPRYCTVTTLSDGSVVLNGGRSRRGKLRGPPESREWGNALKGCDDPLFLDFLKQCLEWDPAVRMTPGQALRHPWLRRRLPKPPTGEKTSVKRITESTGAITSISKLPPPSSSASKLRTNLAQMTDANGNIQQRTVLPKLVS
STK24 (human), sequence (Q9Y6E0 whole entry, looked up): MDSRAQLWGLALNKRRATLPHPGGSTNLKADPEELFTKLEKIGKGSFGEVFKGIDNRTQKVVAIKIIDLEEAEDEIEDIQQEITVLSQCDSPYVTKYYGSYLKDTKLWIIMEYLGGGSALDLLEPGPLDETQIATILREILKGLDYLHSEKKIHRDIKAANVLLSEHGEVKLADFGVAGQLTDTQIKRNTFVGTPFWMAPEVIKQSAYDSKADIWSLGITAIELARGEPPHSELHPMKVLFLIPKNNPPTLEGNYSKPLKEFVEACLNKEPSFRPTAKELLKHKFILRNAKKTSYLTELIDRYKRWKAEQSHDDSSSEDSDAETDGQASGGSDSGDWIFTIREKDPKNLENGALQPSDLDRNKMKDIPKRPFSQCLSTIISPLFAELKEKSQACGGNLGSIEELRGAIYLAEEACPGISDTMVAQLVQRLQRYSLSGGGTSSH

O=C1Cc2c([nH]c3ccc(Br)cc23)-c2ccccc2N1
residual activity (FES (human)): 87.8% | residual activity (FGFR3 (human)): 101% | residual activity (ITK (human)): 102% | residual activity (KDR (human)): 98.1% | residual activity (HIPK2 (human)): 107% | residual activity (CDC42BPB (human)): 95.9% | residual activity (EPHA5 (human)): 96.6% | residual activity (CLK4 (human)): 91.1% | residual activity (DYRK2 (human)): 107% | residual activity (WEE1 (human)): 87.7% | residual activity (MAP3K9 (human)): 64.6% | residual activity (RPS6KA6 KD1 KD2 (human)): 95.9% | residual activity (TXK (human)): 82.6% | residual activity (ERBB2 (human)): 103% | residual activity (PLK1 (human)): 94.9% | residual activity (PRKACA (human)): 102% | residual activity (BTK (human)): 98% | residual activity (MAP2K1 (human)): 84.3% | residual activity (PTK2B (human)): 102% | residual activity (PRKCA (human)): 98.6% | residual activity (RPS6KB2 (human)): 99.4% | residual activity (SRPK3 (human)): 100% | residual activity (GSG2 (human)): 89.1% | residual activity (FGR (human)): 74.4% | residual activity (WNK2 (human)): 112% | residual activity (AURKA (human)): 99.7% | residual activity (DAPK1 (human)): 101% | residual activity (HCK (human)): 85.5% | residual activity (PLK3 (human)): 96% | residual activity (CSNK1D (human)): 104% | residual activity (PRKCB1 (human)): 93.1% | residual activity (NEK6 (human)): 100% | residual activity (MST4 (human)): 108% | residual activity (STK4 (human)): 81.8% | residual activity (CDK9 CCNK (human)): 31.5% | residual activity (DSTYK (human)): 98.6% | residual activity (SRC (human)): 71.4% | residual activity (BMX (human)): 99.6% | residual activity (MARK3 (human)): 76.8% | residual activity (DCLK2 (human)): 94.6% | residual activity (STK24 (human)): 84.8% | residual activity (YES1 (human)): 59.1%

O=C(Nc1cccc(Nc2cc(Nc3cccc(C(F)(F)F)c3)ncn2)c1)C1CC1
residual activity (FES (human)): 101% | residual activity (FGFR3 (human)): 102% | residual activity (ITK (human)): 97.2% | residual activity (KDR (human)): 101% | residual activity (HIPK2 (human)): 107% | residual activity (CDC42BPB (human)): 97.4% | residual activity (EPHA5 (human)): 106% | residual activity (CLK4 (human)): 97.3% | residual activity (DYRK2 (human)): 99.9% | residual activity (WEE1 (human)): 94% | residual activity (MAP3K9 (human)): 107% | residual activity (RPS6KA6 KD1 KD2 (human)): 96.6% | residual activity (TXK (human)): 97.1% | residual activity (ERBB2 (human)): 82.5% | residual activity (PLK1 (human)): 98.6% | residual activity (PRKACA (human)): 102% | residual activity (BTK (human)): 101% | residual activity (MAP2K1 (human)): 98.9% | residual activity (PTK2B (human)): 89.6% | residual activity (PRKCA (human)): 101% | residual activity (RPS6KB2 (human)): 103% | residual activity (SRPK3 (human)): 103% | residual activity (GSG2 (human)): 96.4% | residual activity (FGR (human)): 96.4% | residual activity (WNK2 (human)): 109% | residual activity (AURKA (human)): 107% | residual activity (DAPK1 (human)): 94.7% | residual activity (HCK (human)): 99% | residual activity (PLK3 (human)): 99.1% | residual activity (CSNK1D (human)): 98.9% | residual activity (PRKCB1 (human)): 93.2% | residual activity (NEK6 (human)): 99.2% | residual activity (MST4 (human)): 98.9% | residual activity (STK4 (human)): 99% | residual activity (CDK9 CCNK (human)): 102% | residual activity (DSTYK (human)): 102% | residual activity (SRC (human)): 102% | residual activity (BMX (human)): 93.7% | residual activity (MARK3 (human)): 105% | residual activity (DCLK2 (human)): 101% | residual activity (STK24 (human)): 97.1% | residual activity (YES1 (human)): 99.6%

Cc1nc2cc3nc(-c4cccs4)cnc3cc2n1C
residual activity (FES (human)): 106% | residual activity (FGFR3 (human)): 67.1% | residual activity (ITK (human)): 96.7% | residual activity (KDR (human)): 77.4% | residual activity (HIPK2 (human)): 107% | residual activity (CDC42BPB (human)): 100% | residual activity (EPHA5 (human)): 105% | residual activity (CLK4 (human)): 79.2% | residual activity (DYRK2 (human)): 104% | residual activity (WEE1 (human)): 86.9% | residual activity (MAP3K9 (human)): 90.3% | residual activity (RPS6KA6 KD1 KD2 (human)): 88.5% | residual activity (TXK (human)): 102% | residual activity (ERBB2 (human)): 92% | residual activity (PLK1 (human)): 109% | residual activity (PRKACA (human)): 100% | residual activity (BTK (human)): 101% | residual activity (MAP2K1 (human)): 89.7% | residual activity (PTK2B (human)): 96.4% | residual activity (PRKCA (human)): 74.7% | residual activity (RPS6KB2 (human)): 98% | residual activity (SRPK3 (human)): 96.6% | residual activity (GSG2 (human)): 108% | residual activity (FGR (human)): 89.3% | residual activity (WNK2 (human)): 123% | residual activity (AURKA (human)): 84.8% | residual activity (DAPK1 (human)): 99.5% | residual activity (HCK (human)): 98% | residual activity (PLK3 (human)): 95.6% | residual activity (CSNK1D (human)): 95.9% | residual activity (PRKCB1 (human)): 107% | residual activity (NEK6 (human)): 99.2% | residual activity (MST4 (human)): 99.3% | residual activity (STK4 (human)): 97.4% | residual activity (CDK9 CCNK (human)): 110% | residual activity (DSTYK (human)): 106% | residual activity (SRC (human)): 89.9% | residual activity (BMX (human)): 117% | residual activity (MARK3 (human)): 105% | residual activity (DCLK2 (human)): 104% | residual activity (STK24 (human)): 103% | residual activity (YES1 (human)): 66.9%
